# Bridge positions count the residues as written; N and C are the ends. Square brackets hold non-standard residues; d marks the D form. * marks the point of attachment. 5FAM = O=C1OC2(c3ccc(O)cc3Oc3cc(O)ccc32)c2ccc(C(=O)*)cc21; Cba = N[C@@H](CC1CCC1)C(=O)O; βAla = NCCC(=O)O
# Tests used:
# [1] = system: SJSA-1 cells; test: Cell Viability Assay (MTT), SJSA-1; format: cell-based; settings: read-out: SJSA-1 EC50 (72 h)
# Protocol: The assay is performed according to the following general protocol: • Cell Plating: Trypsinize, count and seed cells at the pre-determined densities in 96-well plates a day prior to assay.
# Add 180 μL of the assay media per well. Control wells with no cells, receive 200 μl media.
# Peptide dilution: all dilutions are made at room temperature and added to cells at room temperature. • Prepare 10 mM stocks of the peptides in DMSO. Serially dilute the stock using 1:3 dilution scheme to get 10, 3.3, 1.1, 0.33, 0.11, 0.03, 0.01 mM solutions using DMSO as diluents. […] Also prepare DMSO/sterile water (3% DMSO) mix for control wells. • Thus the working stocks concentration range μM will be 300, 100, 30, 10, 3, 1, 0.3 and 0 μM. […] H1-H3 will receive 20 ul of assay media. H4-H9 will receive 20 ul of 3% DMSO-water vehicle. […] Nutlin was diluted using the same dilution scheme as peptides.
# (20 μl of 300 μM peptide+180 μl of cells in media=30 μM final concentration in 200 μl volume in wells). Mix gently a few times using pipette. […] Viability of SJSA-1, RKO, RKO-E6, HCT-116 cells is determined on day 3, MCF-7 cells on day 5 and SW-480 cells on day 6. At the end of designated incubation time, allow the plates to come to room temperature. Remove 80 μl of assay media from each well. Add 15 μl of thawed MTT reagent to each well. • Allow plate to incubate for 2 h at 37° C. in humidified 5% CO2 atmosphere and add 100 μl solubilization reagent as per manufacturer's protocol.
# [2] = target: MDM2 (Homo sapiens, UniProt Q00987); test: Competitive Fluorescence Polarization Assay for MDM2; format: binding
# Protocol: Competitive Fluorescence Polarization Assay for MDM2
# The assay is performed according to the following general protocol: • 1. Dilute MDM2 (In-house, 41 kD) into FP buffer (High salt buffer-200 mM Nacl, 5 mM CHAPS, pH 7.5) to make 84 nM (2×) working stock solution. • 2. Add 20 μl of 84 nM (2×) of protein stock solution into each well of 96-well black HE microplate (Molecular Devices) • 3. Dilute 1 mM (in 100% DMSO) of FAM labeled linear peptide with DMSO to 100 μM (dilution 1:10). Then, dilute from 100 μM to 10 μM with water (dilution 1:10) and then dilute with FP buffer from 10 μM to 40 nM (dilution 1:250). This is the working solution which will be a 10 nM concentration in well (dilution 1:4). Keep the diluted FAM labeled peptide in the dark until use. • 4. Make unlabeled peptide dose plate with FP buffer starting with 1 μM (final) of peptide and making 5 fold serial dilutions for 6 points using following dilution scheme. • Dilute 10 mM (in 100% DMSO) with DMSO to 5 mM (dilution 1:2). Then, dilute from 5 mM to 500 μM with H2O (dilution 1:10) and then dilute with FP buffer from 500 μM to 20 μM (dilution 1:25). Making 5 fold serial dilutions from 4 μM (4×) for 6 points. • 5. Transfer 10 μl of serial diluted unlabeled peptides to each well which is filled with 20 μl of 84 nM of protein. • 6. Add 10 μl of […] of FAM labeled peptide into each well and incubate for 3 hr to read. […]
# [3] = target: T1, MDMX (Homo sapiens, UniProt O15151); test: Competitive Fluorescence Polarization Assay for MDMX; format: binding
# T1 sequence (O15151 1-125): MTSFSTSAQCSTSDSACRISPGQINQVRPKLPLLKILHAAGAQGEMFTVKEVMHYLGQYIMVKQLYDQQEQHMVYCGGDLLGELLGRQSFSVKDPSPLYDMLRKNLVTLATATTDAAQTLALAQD
# Protocol: Competitive Fluorescence Polarization Assay for MDMX
# The assay is performed according to the following general protocol: • 1. Dilute MDMX (In-house, 40 kD) into FP buffer (High salt buffer-200 mM Nacl, 5 mM CHAPS, pH 7.5.) to make 300 nM (2×) working stock solution. 2. Add 20 μl of 300 nM (2×) of protein stock solution into each well of 96-well black HE microplate (Molecular Devices) • 3. Dilute 1 mM (in 100% DMSO) of FAM labeled linear peptide with DMSO to 100 μM (dilution 1:10). Then, dilute from 100 μM to 10 μM with water (dilution 1:10) and then dilute with FP buffer from 10 μM to 40 nM (dilution 1:250). This is the working solution which will be a 10 nM concentration in well (dilution 1:4). Keep the diluted FAM labeled peptide in the dark until use. • 4. Make unlabeled peptide dose plate with FP buffer starting with 5 μM (final) of peptide and making 5 fold serial dilutions for 6 points using following dilution scheme. • 5. Dilute 10 mM (in 100% DMSO) with DMSO to 5 mM (dilution 1:2). Then, dilute from 5 mM to 500 μM with H2O (dilution 1:10) and then dilute with FP buffer from 500 μM to 20 μM (dilution 1:25). Making 5 fold serial dilutions from 20 μM (4×) for 6 points. • 6. Transfer 10 μl of serial diluted unlabeled peptides to each well which is filled with 20 μl of 300 nM of protein. • 7. Add 10 μl of […] of FAM labeled peptide into each well and incubate for 3 hr to read. […]
# Chain of MDM2 (Q00987 1-125): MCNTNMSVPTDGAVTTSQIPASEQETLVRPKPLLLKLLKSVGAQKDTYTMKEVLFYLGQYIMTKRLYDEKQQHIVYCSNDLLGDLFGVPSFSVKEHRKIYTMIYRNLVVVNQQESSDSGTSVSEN
EC50 [1] [µM],Ki [2] [µM],Ki [3] [µM],Substance
> 30,–,–,"452 (Ac-LTF[Alpha‑Me R‑azide 1,5 triazole (6 carbon) alanine]AYWAQL[Alpha‑Me alkyne 1,5 triazole (5 carbon) alanine]AAAAA[dA]-NH2; triazole 4-11; not fully specified; printed as Ac-LTF$5rn6AYWAQL$5a5AAAAAa-NH2) [compound 452]"
5 to 15,–,–,"461 (5FAM-[βAla]LTF[Alpha‑Me R‑azide 1,4 triazole (6 carbon) alanine]EYWAQ[Cba][Alpha‑Me alkyne 1,4 triazole (5 carbon) alanine]SAA-NH2; triazole 5-12; not fully specified) [compound 461]"
15 to 30,–,–,"463 (5FAM-[βAla]LTF[Alpha‑Me R‑azide 1,5 triazole (6 carbon) alanine]EYWAQ[Cba][Alpha‑Me alkyne 1,5 triazole (5 carbon) alanine]SAA-NH2; triazole 5-12; not fully specified) [compound 463]"
> 30,–,–,"464 (5FAM-[βAla]LTA[Alpha‑Me R‑azide 1,5 triazole (6 carbon) alanine]EYWAQ[Cba][Alpha‑Me alkyne 1,5 triazole (5 carbon) alanine]SAA-NH2; triazole 5-12; not fully specified) [compound 464]"
–,< 0.01,< 0.01,"466 (LTFAEYWAQAASAA; not fully specified; stapled, Ac, NH2, Cba5Prp; N-term Ac; MOD_RES (4)..(4): Alpha-Me R-azide 1,4 triazole (6 carbon) alanine olefin amino acid connected by an all-carbon crosslinker comprising one double bond; misc_feature (4)..(11): Crosslink between residues; MOD_RES () [compound 466]"
